These results are taken from patent publication US6451807B1, “Methods of treating sexual dysfunction in an individual suffering from a retinal disease, class 1 congestive heart failure, or myocardial infarction using a PDE5 inhibitor” (Lilly Icos, LLC., priority 1999, dated 2002).

This data set relates to patients in need thereof (erectile function). Kind of data set: Two randomized, double-blinded placebo controlled studies, daily and on demand dosing (Example 6). Type of data set: in vivo, human. How it is done: In two randomized, double-blinded placebo controlled studies, the compound of structural formula (I), at a range of doses in both daily dosing and for on demand therapy for sexual encounters and intercourse in the home setting, was administered to patients in need thereof.
Erectile function was assessed by the International Index of Erectile Function (IIEF) (Rosen et al., Urology, 49, pp. 822-830 (1997)), diaries of sexual attempts, and a global satisfaction question.

For `CN1CC(=O)N2[C@H](c3ccc4c(c3)OCO4)c3[nH]c4ccccc4c3C[C@@H]2C1=O` [Compound 5, (6R-trans)-6-(1,3-benzodioxol-5-yl)-2,3,6,7,12,12a-hexahydro-2-methylpyrazino[1′,2′:1,6]pyrido[3,4-b]indole-1,4-dione], where the note is “10 mg dose”, the efficacy result is recorded as “fully efficacious”; the side effects result was “minimal side effects (no flushing and no reports of blue vision)”. Also, under “doses from 5 to 20 mg”, the efficacy entry is listed as “efficacious”, the flushing result was “no flushing” and the vision abnormalities result was “no reports of vision abnormalities”. In addition, the “erectile function as assessed by all endpoints (IIEF, diaries of sexual attempts, global satisfaction question)” value (in vivo) is “significantly improved erectile function”. Besides, the erectile function entry (on demand and daily dose regimens, doses between 1 and 20 mg) is listed as “significantly improved erectile function”.
